Measurements as given in BindingDB's records for doi:10.7270/Q2930RT9 (The Scripps Research Institute Molecular Screening Center, 2014).

Target: T1, Disintegrin and metalloproteinase domain-containing protein 10 (Homo sapiens, UniProt O14672)
T1 sequence (O14672 whole entry): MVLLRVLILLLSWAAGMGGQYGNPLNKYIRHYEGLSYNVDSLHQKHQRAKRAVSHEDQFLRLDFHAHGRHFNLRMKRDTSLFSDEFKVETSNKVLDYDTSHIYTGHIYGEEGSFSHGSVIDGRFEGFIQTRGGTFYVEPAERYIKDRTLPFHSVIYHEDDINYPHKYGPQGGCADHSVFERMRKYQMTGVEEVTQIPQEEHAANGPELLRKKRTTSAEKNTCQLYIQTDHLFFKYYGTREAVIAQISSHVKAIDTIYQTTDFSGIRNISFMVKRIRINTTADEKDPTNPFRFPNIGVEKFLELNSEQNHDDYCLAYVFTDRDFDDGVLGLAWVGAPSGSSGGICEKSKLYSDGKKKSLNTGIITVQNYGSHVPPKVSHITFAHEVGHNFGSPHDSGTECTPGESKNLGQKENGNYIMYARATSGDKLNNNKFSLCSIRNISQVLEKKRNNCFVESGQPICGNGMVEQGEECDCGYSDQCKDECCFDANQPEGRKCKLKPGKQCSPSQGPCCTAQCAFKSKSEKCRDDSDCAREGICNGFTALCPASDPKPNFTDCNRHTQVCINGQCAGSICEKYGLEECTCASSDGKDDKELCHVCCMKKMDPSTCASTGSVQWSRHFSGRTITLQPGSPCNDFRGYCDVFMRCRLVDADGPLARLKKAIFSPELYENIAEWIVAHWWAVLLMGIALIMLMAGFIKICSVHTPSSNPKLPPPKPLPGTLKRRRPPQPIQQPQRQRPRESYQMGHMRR
Assay: potency of ADAM10 substrate cleavage blockers – biochemical, QFRET, dose response (AID 743254)

Cc1cccc(S(=O)(=O)C(C#N)c2nc3ccccc3nc2N2CCOCC2)c1 (configuration not stated) [2-(3-methylphenyl)sulfonyl-2-(3-morpholin-4-ylquinoxalin-2-yl)acetonitrile]
IC50: 69.5 µM

Cc1nnc(=O)[nH]c1N=NCC1C=CC(=O)C([N+](=O)[O-])=C1 (configuration not stated) [MLS000585487]
IC50: 69.5 µM

COc1ccc(N=C(C)c2sc3ccccc3c2O)cc1 [(2Z)-2-[1-(4-methoxyanilino)ethylidene]-1-benzothiophen-3-one]
IC50: 24 µM

CC(/C=C1\N=C(SCc2ccccc2Cl)SC1=O)=C\c1ccccc1 [(4Z)-2-[(2-chlorophenyl)methylsulfanyl]-4-[(E)-2-methyl-3-phenyl-prop-2-enylidene]-1,3-thiazol-5-one]
IC50: 12 µM

O=C(CC1CCCCC1)Nc1nc[nH]n1 [2-cyclohexyl-N-(1H-1,2,4-triazol-5-yl)ethanamide]
IC50: 69.5 µM

CN1C(=O)C(=CNCCCCCCCCCCC(=O)O)C(=O)N(C)C1=O [11-[[1,3-dimethyl-2,4,6-tris(oxidanylidene)-1,3-diazinan-5-ylidene]methylamino]undecanoic acid]
IC50: 13.1 µM

N#CCSc1nc2cc(C(=O)N3CCC(C(N)=O)CC3)ccc2c2nc3ccccc3n12 [1-({6-[(cyanomethyl)thio]benzimidazo[1,2-c]quinazolin-3-yl}carbonyl)piperidine-4-carboxamide]
IC50: 18.2 µM

COc1ccc(-c2nnc(SCC(=O)Nc3cc(S(=O)(=O)N4CCCCC4)ccc3Cl)n2N)cc1 [SMR000243460]
IC50: 7.72 µM

CCCNc1c(F)c(F)c2c(C)c3ccccc3nc2c1F [1,2,4-trifluoro-9-methyl-N-propyl-3-acridinamine]
IC50: 69.5 µM

COC(=O)c1ccc(-n2c(C)cc(CN=Nc3nc(C)cc(=O)[nH]3)c2C)cc1 [SMR000364461]
IC50: 69.5 µM

CSc1nsc2nc(=O)c(/C=C3\C=Nc4ccccc43)c(N)n12 [5-amino-6-[(Z)-3-indolylidenemethyl]-3-(methylthio)-[1,2,4]thiadiazolo[4,5-a]pyrimidin-7-one]
IC50: 7.43 µM

Cc1ccc(OCC(=O)Nc2nnc[nH]2)c(Br)c1 [2-(2-bromanyl-4-methyl-phenoxy)-N-(1H-1,2,4-triazol-5-yl)ethanamide]
IC50: 7.45 µM

Cc1cc(/C=C(/C#N)c2nc3ccccc3[nH]2)c(C)n1-c1ccccc1C(=O)O [2-[3-[(Z)-2-(1H-benzimidazol-2-yl)-2-cyanoethenyl]-2,5-dimethylpyrrol-1-yl]benzoic acid]
IC50: 12.5 µM

O=c1[nH]c(=O)n(-c2ccc(Br)cc2)c(O)c1C=NCCN1CCCCC1
IC50: 11.7 µM

COc1cc(OC)c(C2C3=C(CC(C)(C)CC3=O)OC(=N)C2C#N)cc1OC (configuration not stated) [SMR000054706]
IC50: 8.8 µM

CC(C)C1Nc2ccc(S(N)(=O)=O)cc2C2C=CCC21 (configuration not stated) [SMR000070348]
IC50: 13.3 µM

O=C1OCCN1C(=O)C1=[N+](c2ccc(Br)cc2)N[C-](c2ccc(F)cc2)[C@H]1c1ccc([N+](=O)[O-])cc1 [MLS000517953]
IC50: 18.5 µM

COC(=O)CCCC1=CC2=CC(=O)C(C)(OC(=O)C3CCCC3)C(=O)C2=CO1 (configuration not stated) [SMR000452591]
IC50: 7.23 µM

Cn1nc(-c2ccccn2)nc2c(=O)n(C)c(=O)nc1-2 [1,6-dimethyl-3-(2-pyridinyl)pyrimido[5,4-e][1,2,4]triazine-5,7(1H,6H)-dione]
IC50: 69.5 µM

CCOC(=O)Cc1csc(NC(=O)c2sc3nc4cc(C)ccc4cc3c2N)n1 [2-[2-[(3-amino-7-methyl-thieno[2,3-b]quinoline-2-carbonyl)amino]thiazol-4-yl]acetic acid ethyl ester]
IC50: 7.72 µM

O=C(O)CCc1ccc(-c2ccccc2)n1-c1cccc(C(=O)O)c1 [3-[2-(2-carboxyethyl)-5-phenyl-1-pyrrolyl]benzoic acid]
IC50: 9.61 µM

Cc1ccc(NCC(=O)NN=Cc2ccc(C(=O)O)cc2)cc1 [4-[[2-[(4-methylphenyl)amino]ethanoylhydrazinylidene]methyl]benzoic acid]
IC50: 15.6 µM

COc1ccc(C=CC(=O)c2c(O)n(CCC3=CCCCC3)c(=O)[nH]c2=O)cc1OC [SMR000221147]
IC50: 69.5 µM

COc1cc(CN=O)cc(Br)c1OCc1ccc(Cl)cc1 [3-bromo-4-[(4-chlorobenzyl)oxy]-5-methoxybenzaldehyde oxime]
IC50: 69.5 µM

O=C1/C(=C/c2cccs2)SC(=S)N1NS(=O)(=O)c1ccccc1
IC50: 69.5 µM

Cc1cccc(Oc2nc(-c3ccccn3)nc3ccccc23)c1 [2-Pyridin-2-yl-4-m-tolyloxy-quinazoline]
IC50: 69.5 µM

C(=CN=Nc1nc2ccccc2s1)Cc1ccccc1 [3-phenylacrylaldehyde 1,3-benzothiazol-2-ylhydrazone]
IC50: 69.5 µM

O=c1[nH][nH]c2cc(=O)n(-c3ccc(Cl)cc3)nc12 [5-(4-chlorophenyl)-1,2-dihydropyrazolo[4,3-c]pyridazine-3,6-dione]
IC50: 10.1 µM

O=C1C=CC([N+](=O)[O-])=CC1CN=Nc1ccccn1 (configuration not stated) [MLS000585015]
IC50: 27.5 µM

Fc1c(F)c(C(F)(F)F)c(F)c(F)c1N=NCc1cccs1 [MLS000533109]
IC50: 69.5 µM

N#Cc1c(Cl)nc(N=NCc2ccccc2)c(Cl)c1Cl [2,4,5-tris(chloranyl)-6-[(2E)-2-(phenylmethylidene)hydrazinyl]pyridine-3-carbonitrile]
IC50: 69.5 µM

O=C(Cn1cncn1)NN=Cc1c2ccccc2cc2ccccc12 [N-(9-anthracenylmethylideneamino)-2-(1,2,4-triazol-1-yl)acetamide]
IC50: 69.5 µM

Cc1cc(C=C2C(=O)NC(=O)N(c3ccc(F)cc3)C2=O)c(C)n1-c1cccc(C(=O)O)c1 [3-[3-[(E)-[1-(4-fluorophenyl)-2,4,6-tris(oxidanylidene)-1,3-diazinan-5-ylidene]methyl]-2,5-dimethyl-pyrrol-1-yl]benzoic acid]
IC50: 19.4 µM

O=C1c2ccccc2C(=O)N1CCCc1nc(-c2ccncc2)no1 [2-[3-(3-pyridin-4-yl-1,2,4-oxadiazol-5-yl)propyl]isoindole-1,3-dione]
IC50: 37.6 µM

COc1ccc(N2C(=O)NC(=O)C(=Cc3c[nH]c4ccc(Br)cc34)C2=O)c(OC)c1 [(5E)-5-[(5-bromo-1H-indol-3-yl)methylene]-1-(2,4-dimethoxyphenyl)pyrimidine-2,4,6(1H,3H,5H)-trione]
IC50: 5.44 µM

O=C1OCCN1C(=O)C1=[N+](c2ccc(Br)cc2)N[C-](c2cccc(Cl)c2)[C@H]1c1ccc([N+](=O)[O-])cc1 [MLS000517955]
IC50: 21.4 µM

Oc1cc(N(CCc2ccccc2)C(=S)Nc2cc(Cl)ccc2Cl)c(O)n1-c1c(Cl)cccc1Cl [3-[2,5-bis(chloranyl)phenyl]-1-[1-[2,6-bis(chloranyl)phenyl]-2,5-bis(oxidanylidene)pyrrolidin-3-yl]-1-(2-phenylethyl)thiourea]
IC50: 69.5 µM
